# Assay results as given in patent US20230147455A1, “COMPOUNDS FOR THE PROPHYLAXIS AND/OR TREATMENT OF ACUTE RESPIRATORY DISTRESS SYNDROME” (SERVICIO ANDALUZ DE SALUD, priority 2020, published 2023).
# Like-named read-outs stand apart in the source and are kept apart here.
# Key:
# [1] = 14 clinical trials with 1303 patients; cited from earlier work
# [2] = in vivo; cited from earlier work
# [3] = system: SARS-CoV-2; assay: Pilot randomized clinical trial: ICU admission of hospitalized patients with or without calcifediol; assay type: in vivo; conditions: calcifediol YES group, 42 patients
# Method: Preliminary study performed from 10 Mar. 2020 on 72 patients admitted in pneumology department at Hospital Universitario Reina Sofia in Cordoba, according to hospital protocol.
# Administration of vitamin D (calcifediol):
# The difference is statistically significant: Chi-squared with Yates' correction p=0.0001.
# As shown in the results, progression of the disease requiring admission to the ICU occurred in only 1 of all the patients who were treated with calcifediol.
# [4] = system: COVID-19; assay: Retrospective multicenter cohort study of patients hospitalized with COVID-19, intrahospital mortality; assay type: in vivo, human
# [5] = cited from earlier work
# [6] = patients with ALI and ARDS; cited from earlier work
# [7] = phase III study conducted in 2000; cited from earlier work
# [8] = system: renin and Ang II; conditions: rat lung tissues treated with lipopolysaccharide; cited from earlier work
compound,measurement,setting,value
nitric oxide [inhaled NO],"oxygenation, survival, days off a ventilator",[1],only a temporary improvement in oxygenation without the benefit of survival or an increase in days off a ventilator
"C[C@H](/C=C/[C@H](C)C(C)(C)O)[C@H]1CC[C@H]2/C(=C/C=C3C[C@@H](O)C[C@H](O)C3)CCC[C@]12C [Paricalcitol, 19-nor-1,25-(OH)2-vitamin D2]",effect on LPS-induced acute lung injury,[2],improved the LPS-induced acute lung injury or SARS by maintaining the alveolar barrier function
"C=C1CC[C@H](O)C/C1=C/C=C1\CCC[C@]2(C)[C@@H]([C@H](C)CCCC(C)(C)O)CC[C@@H]12 [calcifediol, 25-hydroxycholecalciferol]",ICU NO (number of patients not admitted to the ICU),[3],41
same,ICU YES (number of patients admitted to the ICU),"[3]; vs 13 of 30 without calcifediol, Chi-squared with Yates' correction p=0.0001",1
same,mortality rate,"[4]; 79 hospitalized COVID-19 patients who received calcifediol, vs 20.7% without, p <0.001",5.1%
same,HR for mortality,"[4]; fitted Cox proportional hazards models, calcifediol vs no calcifediol",0.17 (95% CI: 0.05 to 0.51)
same,death OR,[4]; patients who received calcifediol compared with patients who did not,"0.20 (95% CI, 0.07 to 0.57)"
same,reduction of ICU admissions and death by process,"[4]; patients with COVID-19, general statement at head of Example 2",at least 25%
vitamin D,mortality at 28 days,"[5]; by intramuscular or intravenous injection, vs placebo 40.8%",25.6%
same,"OR, mortality at 28 days","[5]; grouped analysis of the 9 RCTs, 95% CI 0.46-1.15",0.73
same,mortality at 28 days,"[5]; grouped analysis of the 9 RCTs, vs placebo 21.7%",20.4%
same,"OR, mortality at 28 days","[5]; high daily dose, CI 95% 0.51-1.36",0.83
same,mortality at 28 days,"[5]; high daily dose, vs placebo 19.8%",20.9%
same,"OR, mortality at 28 days","[5]; low daily dose, 95% CI 0.32-1.68",0.74
same,mortality at 28 days,"[5]; low daily dose, vs placebo 21.3%",15.6%
same,"OR, mortality at 28 days","[5]; only enterally, 95% CI 0.88-1.57",1.19
same,mortality at 28 days,"[5]; only enterally, vs placebo 18.2%",19.9%
same,"duration of the stay in the ICU, standard mean difference [SMD]","[5]; vitamin D vs placebo, 95% CI −0.61 to 0.01",−0.30
same,"duration of hospital stay, SMD",[5]; vitamin D vs placebo,−0.17
same,"duration of mechanical ventilation, SMD",[5]; vitamin D vs placebo,−0.41
CC(=O)N[C@@H](CS)C(=O)O [N-acetylcysteine],mortality benefit,[6],have not shown any mortality benefits
CC(=O)N1CCN(c2ccc(OCC3COC(Cn4ccnc4)(c4ccc(Cl)cc4Cl)O3)cc2)CC1 (centres unmarked) [Ketoconazole],mortality and secondary outcome measures,[7],did not show any improvement in mortality or in secondary outcome measures
"C=C1/C(=C\C=C2/CCC[C@]3(C)[C@@H]([C@H](C)CCCC(C)(C)O)CC[C@@H]23)C[C@@H](O)C[C@@H]1O [Calcitriol, 1-alpha,25-dihydroxycholecalciferol]",expression of renin and Ang II,[8],suppresses the expression of renin and Ang II
